What was measured:
Human whole blood = test: Whole blood assay for IL-1β production; type: cell-based; conditions: LPS 5.0 ng/ml, 16-18 hr at 30° C.
Experimental: The whole blood assay is a simple method for measuring the production of IL-1β (or other cytokines) and the activity of potential inhibitors. The complexity of this assay system, with its full complement of lymphoid and inflammatory cell types, spectrum of plasma proteins and red blood cells is an ideal in vitro representation of human in vivo physiologic conditions.
Human whole blood sample (^˜30-50 cc) 1.5 ml Eppendorf tubes
Set incubator or water bath at 30°C. Aliquot 0.25 ml of blood into 1.5 ml Eppendorf tubes. Note: be Sure to invert the whole blood sample tubes after every two aliquots. Differences in replicates may result if is the cells sediment and are not uniformly suspended. Use of a positive displacement pipette will also minimize differences between replicate aliquots.
Prepare drug dilutions in sterile pyrogen-free saline by serial dilution. A dilution series which brackets the apparent Ki for a test compound determined in an ICE inhibition assay is generally used for the primary compound screen. For extremely hydrophobic compounds, prepare compound dilutions in fresh plasma obtained from the same blood donor or in PBS-containing 5% DMSO to enhance solubility.
Add 25 μl test compound dilution or vehicle control and gently mix the sample. Then add 5.0 μl LPS solution (250 ng/ml stocked prepared fresh: 5.0 ng/ml final concentration LPS), and mix again. Incubate the tubes at […] in a water bath for 16-18 hr with occasional mixing. Alternatively, the tubes can be placed in a rotator set at 4 rpm for the same incubation period. This assay should be set up in duplicate or triplicate with the following controls: negative control—no LPS; positive control—no test inhibitor; vehicle control—the highest concentration of DMSO or compound solvent used in the experiment. Additional saline is added to all control tubes to normalize volumes for both control and experimental whole blood test samples.
After the incubation period, whole blood samples are centrifuged for 10 minutes at ^˜2000 rpm in the microfuge, plasma is transferred to a fresh microfuge tube and centrifuged at 1000×g to pellet residual platelets if necessary. Plasma samples may be stored frozen at −70° C. prior to assay for cytokine levels by ELISA.
R & D Systems (6.14 McKinley Place N.E. Minneapolis, Minn. 55413) Quantikine kits may be used for measurement of IL-1β and TNF-α. The assays are performed according to the manufacturer's directions. IL-1β levels of ^˜1-5 ng/ml in positive controls among a range of individuals may be observed. A 1:200 dilution of plasma for all samples is usually sufficient for experiments for ELISA results to fall on the linear range of the ELISA standard curves. It may be necessary to optimize standard dilutions if you observe differences in the whole blood assay. Nerad, J. L. et al., J. Leukocyte Biol., 52, pp. 687-692 (1992).

[1] = system: Human Peripheral Blood Mononuclear Cells (PBMC); test: PBMC cell assay: IL-1β assay with LPS-stimulated human PBMC; type: cell-based; conditions: mature IL-1β in supernatant, LPS 5 ng/ml, 16-18 hr
Description: IL-1β Assay with a Mixed Population of Human Peripheral Blood Mononuclear Cells (PBMC) or Enriched Adherent Mononuclear Cells
Processing of pre-IL-1β by ICE can be measured in cell culture using a variety of cell sources. Human PBMC obtained from healthy donors provides a mixed population of lymphocyte subtypes and mononuclear cells that produce a spectrum of interleukins and cytokines in response to many classes of physiological stimulators. Adherent mononuclear cells from PBMC provides an enriched source of normal monocytes for selective studies of cytokine production by activated cells.
An initial dilution series of test compound in DMSO or ethanol is prepared, with a subsequent dilution into RPMI-10% FBS media (containing 2 mM L-glutamine, 10 mM HEPES, 50 U and 50 μg/ml pen/strep) respectively to yield drugs at 4×the final test concentration containing 0.4% DMSO or 0.4% ethanol. The final concentration of DMSO is 0.1% for all drug dilutions. A concentration titration which brackets the apparent Ki for a test compound determined in an ICE inhibition assay is generally used for the primary compound screen.
Generally 5-6 compound dilutions are tested and the cellular component of the assay is performed in duplicate, with duplicate ELISA determinations on each cell culture supernatant.
Buffy coat cells isolated from one pint human blood (yielding 40-45 ml final volume plasma plus cells) are diluted with media to 80 ml and LeukoPREP separation tubes (Becton Dickinson) are each overlaid with 10 ml of cell suspension. After 15 min centrifugation at 1500-1800×g, the plasma/media layer is aspirated and then the mononuclear cell layer is collected with a Pasteur pipette and transferred to a 15 ml conical centrifuge tube (Corning). Media is added to bring the volume to 15 ml, gently mix the cells by inversion and centrifuge at 300×g for 15 min. The PBMC pellet is resuspended in a small volume of media, the cells are counted and adjusted to 6×10^6 cells/ml.
For the cellular assay, 1.0 ml of the cell suspension is added to each well of a 24-well flat bottom tissue culture plate (Corning), 0.5 ml test compound dilution and 0.5 ml LPS solution (Sigma #L-3012; 20 ng/ml solution prepared in complete RPMI media; final LPS concentration 5 ng/ml). The 0.5 ml additions of test compound and LPS are usually sufficient to mix the contents of the wells. Three control mixtures are run per experiment, with either LPS alone, solvent vehicle control, and/or additional media to adjust the final culture volume to 2.0 ml. The cell cultures are incubated for 16-18 hr at 37° C. in the presence of 5% CO2.
At the end of the incubation period, cells are harvested and transferred to 15 ml conical centrifuge tubes. After centrifugation for 10 min at 200×g, supernatants are harvested and transferred to 1.5 ml Eppendorf tubes. It may be noted that the cell pellet may be utilized for a biochemical evaluation of pre-IL-1β and/or mature IL-1β content in cytosol extracts by Western blotting or ELISA with pre-IL-1β specific antisera.
PBMC are isolated and prepared as described above. Media (1.0 ml) is first added to wells followed by 0.5 ml of the PBMC suspension. After a one hour incubation, plates are gently shaken and nonadherent cells aspirated from each well. Wells are then gently washed three times with 1.0 ml of media and final resuspended in 1.0 ml media. The enrichment for adherent cells generally yields 2.5-3.0×10^5 cells per well. […]

ICE Caspase-1 = target: T1, ICE Caspase-1 (Homo sapiens, UniProt P29466); test: ICE (Caspase-1) enzyme inhibition assay, Ki; type: biochemical; conditions: in vitro enzyme assay
T1 sequence (P29466 120-297 limits assumed): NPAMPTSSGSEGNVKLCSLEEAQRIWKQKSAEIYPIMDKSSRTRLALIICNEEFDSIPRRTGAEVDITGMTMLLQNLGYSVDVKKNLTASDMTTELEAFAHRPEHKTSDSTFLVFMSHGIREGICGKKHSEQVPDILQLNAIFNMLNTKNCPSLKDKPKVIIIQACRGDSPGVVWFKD
T1 sequence (P29466 317-404 limits assumed): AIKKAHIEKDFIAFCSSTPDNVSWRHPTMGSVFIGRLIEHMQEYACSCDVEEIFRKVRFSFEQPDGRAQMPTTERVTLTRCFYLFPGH
Experimental: This assay is run using an Succinyl-Tyr-Val-Ala-Asp-p-Nitroanilide substrate. Synthesis of analogous substrates is described by L. A. Reiter (Int. J. Peptide Protein Res., 43, pp. 87-96 (1994)). The assay mixture contains:
The visible ICE assay is run in a 96-well microtiter plate. Buffer, ICE and DMSO (if inhibitor is present) are added to the wells in the order listed. The components are left to incubate at room temperature for 15 minutes starting at the time that all components are present in all wells. The microtiter plate reader is set to incubate at 37° C. After the 15 minute incubation, substrate is added directly to the wells and the reaction is monitored by following the release of the chromophore (pNA) at 405-603 nm at 37° C. for 20 minutes. A linear fit of the data is performed and the rate is calculated in mOD/min. DMSO is only present during experiments involving inhibitors, buffer is used to make up the volume to 100 μl in the other experiments.
This assay is run essentially according to Thornberry et al., Nature, 356 pp. 768-774 (1992), using substrate 17 referenced in that article. The substrate is: Acetyl-Tyr-Val-Ala-Asp-amino-4-methylcoumarin (AMC). The following components are mixed:
The assay is run in a 96-well microtiter plate. Buffer and ICE are added to the wells. The components are left to incubate at 37° C. for 15 minutes in a temperature-controlled wellplate. After the 15 minute incubation, the reaction is started by adding substrate directly to the wells and the reaction is monitored at 37° C. for 30 minutes by following the release of the AMC fluorophore using an excitation wavelength for 380 nm and an emission wavelength of 460 nm. A linear fit of the data for each well is performed and a rate is determined in fluorescence units per second.
(§1) For determination of enzyme inhibition constants (Ki) or the mode of inhibition (competitive, uncompetitive or noncompetitive), the rate data determined in the enzyme assays at varying inhibitor concentrations are computer-fit to standard enzyme kinetic equations (see I. H. Segel, Enzyme Kinetics, Wiley-Interscience, 1975).

Flice Caspase-8 = Flice Caspase-8 (Homo sapiens, UniProt Q14790); test: Flice (Caspase-8) enzyme inhibition, Ki; type: biochemical; conditions: in vitro enzyme assay
Description: (§2) Other assays that may be used to evaluate the compounds of this invention are disclosed in PCT application PCT/US96/20843, published Jun. 26, 1997, under publication no. WO 97/22619, which is incorporated herein by reference. Such assays include in vivo bioavailability determinations, pharmacokinetic studies in the mouse, inhibition of ICE homologs, inhibition of apoptosis, in vivo acute assay for anti-inflammatory efficacy, measurement of blood levels, IGIF assays, mouse carrageenan peritoneal inflammation assay, and type II collagen-induced arthritis.
as §1

CPP32 Caspase-3 = target: T2, CPP32 Caspase-3 (Homo sapiens, UniProt P42574); test: CPP32 (Caspase-3) enzyme inhibition, Ki; type: biochemical; conditions: in vitro enzyme assay
T2 sequence (P42574 29-175 limits assumed): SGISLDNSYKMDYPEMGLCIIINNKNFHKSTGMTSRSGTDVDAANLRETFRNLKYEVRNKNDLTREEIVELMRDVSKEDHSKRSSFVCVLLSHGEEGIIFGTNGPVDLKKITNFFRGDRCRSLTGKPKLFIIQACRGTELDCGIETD
T2 sequence (P42574 176-277 limits assumed): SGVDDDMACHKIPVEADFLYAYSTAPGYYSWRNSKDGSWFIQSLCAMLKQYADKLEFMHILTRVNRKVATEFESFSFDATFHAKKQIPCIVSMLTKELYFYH
Description: as §2, §1

Flice Caspase-8, sequence (Q14790 217-374 limits assumed): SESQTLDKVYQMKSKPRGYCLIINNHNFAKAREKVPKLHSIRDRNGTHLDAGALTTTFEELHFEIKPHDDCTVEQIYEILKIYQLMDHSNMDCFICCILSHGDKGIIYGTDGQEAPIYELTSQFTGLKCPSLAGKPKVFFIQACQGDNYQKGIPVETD
Flice Caspase-8, sequence (Q14790 385-479 limits assumed): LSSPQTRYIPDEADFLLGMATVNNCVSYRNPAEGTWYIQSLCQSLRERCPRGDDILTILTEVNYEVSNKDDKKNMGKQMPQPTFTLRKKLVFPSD

Compound | IC50 (Human whole blood) [µM] | Ki (ICE Caspase-1) [µM] | Ki (Flice Caspase-8) [µM] | Ki (CPP32 Caspase-3) [µM] | IC50 [1] [µM]
CC(C(=O)N[C@H](C=O)CC(=O)O)N1C(=O)[C@@H](NC(=O)c2cc(Cl)c(O)c(Cl)c2)CCC(=O)N1C (mixture of isomers) [Compound 20, 3-{2-[6-(3,5-Dichloro-4-hydroxy-benzoylamino)-2-methyl-3,7-dioxo-[1,2]diazepan-1-yl]-propionylamino}-4-oxo-butyric acid] | 0.83 | 0.0009 | – | – | 0.54
CS(=O)(=O)N1CCC[C@H](NC(=O)c2cc(Cl)c(O)c(Cl)c2)C(=O)N1CC(=O)N[C@H](C=O)CC(=O)O [Compound 27, 3-{2-[6-(3,5-Dichloro-4-hydroxy-benzoylamino)-2-methanesulfonyl-7-oxo-[1,2]diazepan-1-yl]-acetylamino}-4-oxo-butyric acid] | 1.9 | 0.017 | – | – | 1

More lines, main results first:

IC50 (Human whole blood) [µM] | Ki (ICE Caspase-1) [µM] | Ki (Flice Caspase-8) [µM] | Ki (CPP32 Caspase-3) [µM] | Compound | IC50 [1] [µM]
7.3 | 0.101 | – | – | O=C[C@H](CC(=O)O)NC(=O)CN1C(=O)[C@@H](NC(=O)c2nccc3ccccc23)CCC(=O)N1Cc1ccccc1 [Compound 11a, 3-(2-{2-Benzyl-6-[(isoquinoline-1-carbonyl)-amino]-3,7-dioxo-[1,2]diazepan-1-yl}-acetylamino)-4-oxo-butyric acid] | 1.4
5.8 | 0.12 | – | – | CCCN1C(=O)CC[C@H](NC(=O)c2nccc3ccccc23)C(=O)N1CC(=O)N[C@H](C=O)CC(=O)O [Compound 11b, 3-(2-(6-[(Isoquinoline-1-carbonyl)-amino]-3,7-dioxo-2-propyl-[1,2]diazepan-1-yl)-acetylamino)-4-oxo-butyric acid] | 1.5
1.45 | 0.016 | 1.5 | 22.2 | CCCN1C(=O)CC[C@H](NC(=O)c2cc(Cl)c(O)c(Cl)c2)C(=O)N1CC(=O)N[C@H](C=O)CC(=O)O [Compound 11c, 3-{2-[6-(3,5-Dichloro-4-hydroxy-benzoylamino)-3,7-dioxo-2-propyl-[1,2]diazepan-1-yl]-acetylamino}-4-oxo-butyric acid] | 0.42

Reference: US6426413B1, “Inhibitors of caspases” (Vertex Pharmaceuticals Incorporated, priority 1998, dated 2002)
